These molecules were tested against Hepatitis C virus NS3 helicase (assay: HCV NS3 helicase inhibitor potency, late-stage follow-up, biochemical, fluorescence, dose response (AID 2474)). Conditions: recombinant NS3 helicase, fluorescence unwinding assay.

Row | Structure (SMILES) | IC50
1 | CCCCCOc1ccc(C2C(C(=O)c3ccc(C)o3)=C(O)C(=O)N2c2cc(C)on2)cc1 (configuration not stated) | 1810 nM
2 | COc1cccc(-n2c(SCc3cc(=O)oc4cc(O)c(O)cc34)nc3ccccc3c2=O)c1 | 2880 nM
3 | Cc1ccc(C(=O)C2=C(O)C(=O)N(Cc3ccco3)C2c2cccc(Cl)c2)o1 (configuration not stated) | 6590 nM
4 | CCOc1cccc(C2C(C(=O)c3ccc(C)o3)=C(O)C(=O)N2Cc2ccccc2)c1 (configuration not stated) | 5290 nM
5 | Cc1cc(N2C(=O)C(O)=C(C(=O)c3ccc(C)o3)C2c2ccc(OCc3ccccc3)cc2)no1 (configuration not stated) | 1470 nM
6 | COc1cc(C2C(C(=O)c3ccc(C)o3)=C(O)C(=O)N2c2cc(C)on2)ccc1OCc1ccccc1 (configuration not stated) | 1630 nM
7 | COc1ccc(C=NNC(=O)c2cc(O)c(O)c(O)c2)cc1COc1ccc(C(=O)OCC(C)C)cc1 | 9370 nM

Reference: PubChem BioAssay AID2474 (The Scripps Research Institute Molecular Screening Center, 2010)
